Results published in patent US20130203798A1, “DIAGNOSIS AND TREATMENT OF FUNCTIONAL DYSPEPSIA AND IRRITABLE BOWEL SYNDROME” (EV MED, priority 2012, published 2013).

Columns and labels:
coxsackievirus B4 (CVB4) = assay: Inhibition of enterovirus replication in chronically infected BGMK-DAF cells, viral RNA by qRT-PCR; format: cell-based; settings: for Viral RNA Log10: no treatment 4.20
Method: (§1) Oxymatrine is an alkaloid with antiviral and immune boosting effect. […] 200,000 BGMK-DAF cells were infected with coxsackievirus B3,4 (CVB3,4) or echovirus 6,7 (Echo V6,7), previously titrated to cause complete lysis of cells in 48-72 hours, then treated with 0.18 μg of peg-interferon α-2a in 4 hours and 90 hours. Oxymatrine was added at 162 hours post-infection. Viral RNA, expressed in log10 was quantified by qRT-PCR with a cDNA standard, and reduction of log viral RNA calculated based on no-treatment wells. Duplicate wells were combined for viral RNA determination.

echovirus 6 (EchoV 6) = assay: as above; format: cell-based; settings: EchoV 6, BGMK-DAF cells; for Viral RNA Log10: no treatment 5.00
Method: as §1

coxsackievirus B3 (CVB3) = assay: as above; format: cell-based; settings: for Viral RNA Log10: no treatment 6.84
Method: as §1

echovirus 7 (EchoV 7) = assay: as above; format: cell-based; settings: EchoV 7, BGMK-DAF cells; for Viral RNA Log10: no treatment 5.61
Method: as §1

enteroviruses = assay: In vitro inhibition of four enteroviruses in interferon pre-treated, chronically infected cells (summary); format: cell-based, enterovirus; settings: cells pre-treated with interferon to produce chronic infection; four enteroviruses tested
Method: as §1

O=C1CCC[C@@H]2[C@H]3CCC[N@+]4([O-])CCC[C@@H](CN12)[C@@H]34 [Oxymatrine, oxymatrine]
Dec Log10 (reduction of log viral RNA vs no-treatment wells) (coxsackievirus B4 (CVB4); 1 μM oxymatrine): −0.55 Log10 | Viral RNA Log10 (coxsackievirus B4 (CVB4); 1 μM oxymatrine): 3.66 Log10 | Dec Log10 (reduction of log viral RNA vs no-treatment wells) (coxsackievirus B4 (CVB4); 10 μM oxymatrine): −4.20 Log10 | Viral RNA Log10 (coxsackievirus B4 (CVB4); 10 μM oxymatrine): 0.00 Log10 | Dec Log10 (reduction of log viral RNA vs no-treatment wells) (coxsackievirus B4 (CVB4); 100 μM oxymatrine): −3.90 Log10 | Viral RNA Log10 (coxsackievirus B4 (CVB4); 100 μM oxymatrine): 0.30 Log10 | Dec Log10 (reduction of log viral RNA vs no-treatment wells) (echovirus 6 (EchoV 6); 1 μM oxymatrine): 0.00 Log10 | Viral RNA Log10 (echovirus 6 (EchoV 6); 1 μM oxymatrine): 5.00 Log10 | Dec Log10 (reduction of log viral RNA vs no-treatment wells) (echovirus 6 (EchoV 6); 10 μM oxymatrine): 0.37 Log10 | Viral RNA Log10 (echovirus 6 (EchoV 6); 10 μM oxymatrine): 5.37 Log10 | Dec Log10 (reduction of log viral RNA vs no-treatment wells) (echovirus 6 (EchoV 6); 100 μM oxymatrine): 0.00 Log10 | Viral RNA Log10 (echovirus 6 (EchoV 6); 100 μM oxymatrine): 5.00 Log10 | Dec Log10 (reduction of log viral RNA vs no-treatment wells) (coxsackievirus B3 (CVB3); 1 μM oxymatrine): −6.24 Log10 | Viral RNA Log10 (coxsackievirus B3 (CVB3); 1 μM oxymatrine): 0.60 Log10 | Dec Log10 (reduction of log viral RNA vs no-treatment wells) (coxsackievirus B3 (CVB3); 10 μM oxymatrine): −6.54 Log10 | Viral RNA Log10 (coxsackievirus B3 (CVB3); 10 μM oxymatrine): 0.30 Log10 | Dec Log10 (reduction of log viral RNA vs no-treatment wells) (coxsackievirus B3 (CVB3); 100 μM oxymatrine): −5.54 Log10 | Viral RNA Log10 (coxsackievirus B3 (CVB3); 100 μM oxymatrine added 162 h post-infection): 1.30 Log10 | Dec Log10 (reduction of log viral RNA vs no-treatment wells) (echovirus 7 (EchoV 7); 1 μM oxymatrine): −0.28 Log10 | Viral RNA Log10 (echovirus 7 (EchoV 7); 1 μM oxymatrine): 5.33 Log10 | Dec Log10 (reduction of log viral RNA vs no-treatment wells) (echovirus 7 (EchoV 7); 10 μM oxymatrine): −0.17 Log10 | Viral RNA Log10 (echovirus 7 (EchoV 7); 10 μM oxymatrine): 5.45 Log10 | Dec Log10 (reduction of log viral RNA vs no-treatment wells) (echovirus 7 (EchoV 7); 100 μM oxymatrine): 0.22 Log10 | Viral RNA Log10 (echovirus 7 (EchoV 7); 100 μM oxymatrine): 5.83 Log10 | Inhibition of enteroviruses in vitro (enteroviruses): significant inhibition of two out of four enteroviruses
